Source: US9650366B2, “Heterocycle-substituted pyridyl benzothiophenes as kinase inhibitors” (Allergan, Inc., priority 2014, dated 2017)

Key:
Format in all cases: biochemical
human GST-PKR = human GST-PKR (Homo sapiens (Human), UniProt P19525); experiment: PKR KinaseGlo Assay; details: recombinant human GST-PKR, 6.6 uM ATP
Procedure: Commercially available recombinant human GST-PKR (SignalChem, Canada; 1.5 uM-2 uM stock) is diluted to 500 nM in assay buffer (20 mM Tris-HCl, pH 7.2, 10 mM KCl, 10 mM MgCl2, 10% glycerol). Preactivated PKR is dispensed to 384/96-well black plates at 3.125/12.5 uls/well using the liquid handler Janus. Appropriate dilutions of inhibitors are added to 384/96-well plate followed by 6.6 uM ATP (final) and incubated for 10 minutes at room temperature. The remaining ATP/well is determined by adding 6.25/25 uls/well Kinase-Glo assay mix (Promega) and luminescence is measured on EnVision luminescence plate reader (integration time, 0.2 sec; Perkin-Elmer, Massachusetts, USA). The % inhibition for the compounds is calculated using ATP only (100% inhibition) and PKR+ATP (0% inhibition). IC50 values are determined by plotting % activity versus inhibitor concentration. Curves are fitted using Activity base XLfit (IDBS, UK) using the formula—
4 Parameter Logistic Model
fit=(A+((B−A)/(1+(10^((C−x)*D))))) inv=(C−(log(((B−A)/(y−A))−1)/D)) res=(y−fit)

VEGFR2 (KDR) = VEGFR2 (KDR) (Homo sapiens (Human), UniProt P35968); experiment: VEGFR2 Kinase Assay; details: purified cytoplasmic domain KDR protein, 2.7 μM ATP
Procedure: Biochemical KDR kinase assays were performed in 96 well microtiter plates that were coated overnight with 75 μg/well of poly-Glu-Tyr (4:1) in 10 mM Phosphate Buffered Saline (PBS), pH 7.4. The coated plates were washed with 2 mls per well PBS+0.05% Tween-20 (PBS-T), blocked by incubation with PBS containing 1% BSA, then washed with 2 mls per well PBS-T prior to starting the reaction. Reactions were carried out in 100 μL reaction volumes containing 2.7 μM ATP in kinase buffer (50 mM Hepes buffer pH 7.4, 20 mM MgCl2, 0.1 mM MnCl2 and 0.2 mM Na3VO4). Test compounds were reconstituted in 100% DMSO and added to the reaction to give a final DMSO concentration of 5%. Reactions were initiated by the addition 20 ul per well of kinase buffer containing 200-300 ng purified cytoplasmic domain KDR protein (BPS Bioscience, San Diego, Calif.). Following a 15 minute incubation at 30° C., the reactions were washed 2 mls per well PBS-T. 100 μl of a monoclonal anti-phosphotyrosine antibody-peroxidase conjugate diluted 1:10,000 in PBS-T was added to the wells for 30 minutes. Following a 2 mls per well wash with PBS-Tween-20, 100 μl of 0-Phenylenediamine Dihydrochloride in phosphate-citrate buffer, containing urea hydrogen peroxide, was added to the wells for 7-10 minutes as a colorimetric substrate for the peroxidase. The reaction was terminated by the addition of 100 μl of 2.5N H2SO4 to each well and read using a microplate ELISA reader set at 492 nm. IC50 values for compound inhibition were calculated directly from graphs of optical density (arbitrary units) versus compound concentration following subtraction of blank values.

PDGFRβ = PDGFRβ (Homo sapiens (Human), UniProt P09619); experiment: PDGFRβ Kinase Assay; details: purified cytoplasmic domain PDGFR-b protein, 36 μM ATP
Procedure: Biochemical PDGFRβ kinase assays were performed in 96 well microtiter plates that were coated overnight with 75 μg of poly-Glu-Tyr (4:1) in 10 mM Phosphate Buffered Saline (PBS), pH 7.4. The coated plates were washed with 2 mls per well PBS+0.05% Tween-20 (PBS-T), blocked by incubation with PBS containing 1% BSA, then washed with 2 mls per well PBS-T prior to starting the reaction. Reactions were carried out in 100 μL reaction volumes containing 36 μM ATP in kinase buffer (50 mM Hepes buffer pH 7.4, 20 mM MgCl2, 0.1 mM MnCl2 and 0.2 mM Na3VO4). Test compounds were reconstituted in 100% DMSO and added to the reaction to give a final DMSO concentration of 5%. Reactions were initiated by the addition 20 ul per well of kinase buffer containing 200-300 ng purified cytoplasmic domain PDGFR-b protein (Millipore). Following a 60 minute incubation at 30° C., the reactions were washed 2 mls per well PBS-T. 100 μl of a monoclonal anti-phosphotyrosine antibody-peroxidase conjugate diluted 1:10,000 in PBS-T was added to the wells for 30 minutes. […] The reaction was terminated by the addition of 100 μl of 2.5N H2SO4 to each well and read using a microplate ELISA reader set at 492 nm. IC50 values for compound inhibition were calculated directly from graphs of optical density (arbitrary units) versus compound concentration following subtraction of blank values.

Sequence of VEGFR2 (KDR) (P35968 786-1356): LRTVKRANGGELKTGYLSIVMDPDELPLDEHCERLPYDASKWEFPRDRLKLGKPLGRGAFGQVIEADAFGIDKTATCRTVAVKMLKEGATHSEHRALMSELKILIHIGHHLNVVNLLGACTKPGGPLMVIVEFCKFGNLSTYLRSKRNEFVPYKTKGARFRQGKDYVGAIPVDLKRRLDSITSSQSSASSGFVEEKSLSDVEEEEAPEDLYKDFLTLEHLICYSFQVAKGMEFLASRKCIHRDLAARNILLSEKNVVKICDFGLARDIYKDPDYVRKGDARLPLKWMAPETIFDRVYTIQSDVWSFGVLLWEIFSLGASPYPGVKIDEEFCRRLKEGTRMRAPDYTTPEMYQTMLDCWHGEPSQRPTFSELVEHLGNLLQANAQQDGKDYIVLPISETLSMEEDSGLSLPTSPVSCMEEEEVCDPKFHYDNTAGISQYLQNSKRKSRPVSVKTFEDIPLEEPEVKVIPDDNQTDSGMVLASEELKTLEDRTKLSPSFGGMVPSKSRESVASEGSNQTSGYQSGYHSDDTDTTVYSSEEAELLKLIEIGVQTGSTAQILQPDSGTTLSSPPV
Sequence of human GST-PKR (P19525 whole entry): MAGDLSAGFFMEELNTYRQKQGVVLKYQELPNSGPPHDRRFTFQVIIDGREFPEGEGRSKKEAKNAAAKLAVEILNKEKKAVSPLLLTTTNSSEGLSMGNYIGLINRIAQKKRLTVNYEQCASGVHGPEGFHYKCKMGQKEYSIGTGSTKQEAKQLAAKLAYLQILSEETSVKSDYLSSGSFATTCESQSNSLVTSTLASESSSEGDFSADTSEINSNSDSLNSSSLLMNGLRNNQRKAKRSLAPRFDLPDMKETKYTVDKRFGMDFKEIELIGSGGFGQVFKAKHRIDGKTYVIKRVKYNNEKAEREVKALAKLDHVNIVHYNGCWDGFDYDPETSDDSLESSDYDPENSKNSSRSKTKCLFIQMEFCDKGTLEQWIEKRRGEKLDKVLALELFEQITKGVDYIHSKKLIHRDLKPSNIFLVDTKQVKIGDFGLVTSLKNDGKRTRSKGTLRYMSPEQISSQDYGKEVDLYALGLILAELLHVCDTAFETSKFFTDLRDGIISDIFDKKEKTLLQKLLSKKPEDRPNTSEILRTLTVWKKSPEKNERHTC
Sequence of PDGFRβ (P09619 554-1106): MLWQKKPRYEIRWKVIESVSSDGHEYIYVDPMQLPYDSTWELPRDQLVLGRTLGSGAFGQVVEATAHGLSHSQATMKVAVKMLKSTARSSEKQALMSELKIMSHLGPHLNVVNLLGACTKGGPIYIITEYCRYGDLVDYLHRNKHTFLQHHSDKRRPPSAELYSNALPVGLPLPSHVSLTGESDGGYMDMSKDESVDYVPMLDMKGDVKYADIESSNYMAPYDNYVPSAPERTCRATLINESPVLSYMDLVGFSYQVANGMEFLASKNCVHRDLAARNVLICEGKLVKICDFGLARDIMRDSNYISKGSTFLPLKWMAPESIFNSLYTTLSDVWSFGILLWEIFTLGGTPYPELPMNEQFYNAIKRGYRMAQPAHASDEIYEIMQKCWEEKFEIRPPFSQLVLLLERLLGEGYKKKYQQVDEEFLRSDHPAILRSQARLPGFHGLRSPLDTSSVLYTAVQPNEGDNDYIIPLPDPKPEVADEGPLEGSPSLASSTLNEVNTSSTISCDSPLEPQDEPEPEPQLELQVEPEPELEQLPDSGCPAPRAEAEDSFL

Row | Structure (SMILES) | IC50 (human GST-PKR) [nM] | IC50 (VEGFR2 (KDR)) [nM] | IC50 (PDGFRβ) [nM]
1 | Nc1ncc(-c2nnn(CCCO)n2)cc1-c1cc2cc(NC(=O)Nc3cc(C(F)(F)F)cc(C(F)(F)F)c3)ccc2s1 [Example 6, 1-(2-{2-amino-5-[2-(3-hydroxypropyl)-2H-tetrazol-5-yl]pyridin-3-yl}-1-benzothien-5-yl)-3-[3,5-bis(trifluoromethyl)phenyl]urea] | 66 | – | –
2 | Nc1ncc(-c2nn[nH]n2)cc1-c1cc2cc(NC(=O)Nc3ccc(Cl)c(C(F)(F)F)c3)ccc2s1 [Example 2, 1-{2-[2-amino-5-(2H-tetrazol-5-yl)pyridin-3-yl]-1-benzothien-5-yl}-3-[4-chloro-3-(trifluoromethyl)phenyl]urea] | 140 | – | –
3 | Cc1ccoc1C(=O)Nc1cccc(C#Cc2cncc(-c3nnn(CCCO)n3)c2)c1 [Example 9, N-[3-({5-[2-(3-hydroxypropyl)-2H-tetrazol-5-yl]pyridin-3-yl}ethynyl)phenyl]-3-methyl-2-furamide] | > 10000 | 5 | 21
4 | Nc1ncc(-c2nnn(CCCO)n2)cc1-c1cc2cc(NC(=O)Nc3ccc(Cl)c(C(F)(F)F)c3)ccc2s1 [Example 3, 1-(2-{2-amino-5-[2-(3-hydroxypropyl)-2H-tetrazol-5-yl]pyridin-3-yl}-1-benzothien-5-yl)-3-[4-chloro-3-(trifluoromethyl)phenyl]urea] | 39 | – | –
5 | Nc1ncc(-c2nnn(CCO)n2)cc1-c1cc2cc(NC(=O)Nc3ccc(Cl)c(C(F)(F)F)c3)ccc2s1 [Example 8, 1-(2-{2-amino-5-[2-(2-hydroxyethyl)-2H-tetrazol-5-yl]pyridin-3-yl}-1-benzothien-5-yl)-3-[4-chloro-3-(trifluoromethyl)phenyl]urea] | 82 | – | –
6 | Nc1ncc(-c2nnn(CCCO)n2)cc1-c1cc2cc(NC(=O)Nc3cc(F)cc(C(F)(F)F)c3)ccc2s1 [Example 5, 1-(2-{2-amino-5-[2-(3-hydroxypropyl)-2H-tetrazol-5-yl]pyridin-3-yl}-1-benzothien-5-yl)-3-[3-fluoro-5-(trifluoromethyl)phenyl]urea] | 76 | – | –
7 | O=C(Nc1ccc(Cl)c(C(F)(F)F)c1)Nc1ccc2sc(-c3cncc(-c4nn[nH]n4)c3)cc2c1 [Example 1, 1-[4-chloro-3-(trifluoromethyl)phenyl]-3-{2-[5-(2H-tetrazol-5-yl)pyridin-3-yl]-1-benzothien-5-yl}urea] | 727 | – | –
8 | Nc1ncc(-c2nnn(CCCO)n2)cc1-c1cc2cc(NC(=O)Nc3ccc(F)c(C(F)(F)F)c3)ccc2s1 [Example 4, 1-(2-{2-amino-5-[2-(3-hydroxypropyl)-2H-tetrazol-5-yl]pyridin-3-yl}-1-benzothien-5-yl)-3-[4-fluoro-3-(trifluoromethyl)phenyl]urea] | 99 | – | –

The next lines start with the values.

Row | IC50 (human GST-PKR) [nM] | IC50 (VEGFR2 (KDR)) [nM] | IC50 (PDGFRβ) [nM] | Structure (SMILES)
9 | > 10000 | 8 | – | O=C(Nc1ccc(C#Cc2cncc(-c3nnn(CCCO)n3)c2)cc1)Nc1cc(C(F)(F)F)ccc1F [Example 12, 1-[2-fluoro-5-(trifluoromethyl)phenyl]-3-[4-({5-[2-(3-hydroxypropyl)-2H-tetrazol-5-yl]pyridin-3-yl}ethynyl)phenyl]urea]
10 | 301 | – | – | Nc1ncc(-c2cnccn2)cc1-c1cc2cc(NC(=O)Nc3ccc(Cl)c(C(F)(F)F)c3)ccc2s1 [Example 14, 1-[2-(2-amino-5-pyrazin-2-ylpyridin-3-yl)-1-benzothien-5-yl]-3-[4-chloro-3-(trifluoromethyl)phenyl]urea]
11 | 558 | – | – | Nc1ncc(-c2ncccn2)cc1-c1cc2cc(NC(=O)Nc3ccc(Cl)c(C(F)(F)F)c3)ccc2s1 [Example 13, 1-[2-(2-amino-5-pyrimidin-2-ylpyridin-3-yl)-1-benzothien-5-yl]-3-[4-chloro-3-(trifluoromethyl)phenyl]urea]
12 | – | 7 | – | Cc1cccc(C(=O)Nc2cccc(C#Cc3cncc(-c4nnn(CCCO)n4)c3)c2)c1 [Example 10, N-[3-({5-[2-(3-hydroxypropyl)-2H-tetrazol-5-yl]pyridin-3-yl}ethynyl)phenyl]-3-methylbenzamide]
13 | 158 | – | – | Nc1ncc(-c2nnn(CCCO)n2)cc1C#Cc1cccc(NC(=O)Nc2ccc(Cl)c(C(F)(F)F)c2)c1 [Example 11, 1-[3-({2-amino-5-[2-(3-hydroxypropyl)-2H-tetrazol-5-yl]pyridin-3-yl}ethynyl)phenyl]-3-[4-chloro-3-(trifluoromethyl)phenyl]urea]
